Assay results: PubChem BioAssay (NCI)
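Exposure lasted 48 hours, with cells grown in 96-well plates and compounds tested at five concentrations. GI50 = concentration required for 50% inhibition of growth. TGI: concentration producing complete growth inhibition.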

Legend:
Experiment in all cases: NCI-60 cell line screen, 48 h
786-0 renal = system: 786-0 renal
A498 renal = system: A498 renal
A549 NSCLC = system: A549 NSCLC
ACHN renal = system: ACHN renal
BT-549 breast = system: BT-549 breast
CAKI-1 renal = system: CAKI-1 renal
CCRF-CEM leukemia = system: CCRF-CEM leukemia
COLO 205 colon = system: COLO 205 colon
DU-145 prostate = system: DU-145 prostate
EKVX NSCLC = system: EKVX NSCLC
HCC-2998 colon = system: HCC-2998 colon
HCT-116 colon = system: HCT-116 colon
HCT-15 colon = system: HCT-15 colon
HL-60(TB) leukemia = system: HL-60(TB) leukemia
HOP-62 NSCLC = system: HOP-62 NSCLC
HOP-92 NSCLC = system: HOP-92 NSCLC
HS 578T breast = system: HS 578T breast
HT29 colon = system: HT29 colon
IGROV1 ovarian = system: IGROV1 ovarian
K-562 leukemia = system: K-562 leukemia
KM12 colon = system: KM12 colon
LOX IMVI melanoma = system: LOX IMVI melanoma
M14 melanoma = system: M14 melanoma
MALME-3M melanoma = system: MALME-3M melanoma
MCF7 breast = system: MCF7 breast
MDA-MB-231 breast = system: MDA-MB-231 breast
MOLT-4 leukemia = system: MOLT-4 leukemia
NCI-H226 lung = system: NCI-H226 lung
NCI-H23 lung = system: NCI-H23 lung
NCI-H460 lung = system: NCI-H460 lung
NCI-H522 lung = system: NCI-H522 lung
NCI/ADR-RES ovarian = system: NCI/ADR-RES ovarian
OVCAR-3 ovarian = system: OVCAR-3 ovarian
OVCAR-4 ovarian = system: OVCAR-4 ovarian
OVCAR-5 ovarian = system: OVCAR-5 ovarian
OVCAR-8 ovarian = system: OVCAR-8 ovarian
PC-3 prostate = system: PC-3 prostate
RPMI-8226 leukemia = system: RPMI-8226 leukemia
RXF 393 renal = system: RXF 393 renal
SF-268 CNS = system: SF-268 CNS
SF-295 CNS = system: SF-295 CNS
SF-539 CNS = system: SF-539 CNS
SK-MEL-2 melanoma = system: SK-MEL-2 melanoma
SK-MEL-28 melanoma = system: SK-MEL-28 melanoma
SK-MEL-5 melanoma = system: SK-MEL-5 melanoma
SK-OV-3 ovarian = system: SK-OV-3 ovarian
SN12C renal = system: SN12C renal
SNB-19 CNS = system: SNB-19 CNS
SNB-75 CNS = system: SNB-75 CNS
SR leukemia = system: SR leukemia
SW-620 colon = system: SW-620 colon
T-47D breast = system: T-47D breast
TK-10 renal = system: TK-10 renal
U251 CNS = system: U251 CNS
UACC-257 melanoma = system: UACC-257 melanoma
UACC-62 melanoma = system: UACC-62 melanoma
UO-31 renal = system: UO-31 renal

`COc1cc(C(=O)N2CCN(c3ccccc3)CC2)c2ccccc2n1` was tested, and the GI50 (786-0 renal) was 0.127 µM, the TGI (786-0 renal) was greater than 100 µM and the GI50 (A498 renal) was 0.0226 µM. It also gave a TGI (A498 renal) of 0.357 µM, a GI50 (A549 NSCLC) of 0.101 µM and a TGI (A549 NSCLC) greater than 100 µM. The GI50 (ACHN renal) was 0.382 µM, the TGI (ACHN renal) was greater than 100 µM and the GI50 (BT-549 breast) was 0.475 µM. It also gave a TGI (BT-549 breast) greater than 100 µM, a GI50 (CAKI-1 renal) of 0.043 µM and a TGI (CAKI-1 renal) greater than 22.5 µM. It also gave a GI50 (CCRF-CEM leukemia) of 0.128 µM, a TGI (CCRF-CEM leukemia) greater than 100 µM and a GI50 (COLO 205 colon) of 0.0623 µM. For the same molecule, the TGI (COLO 205 colon) was 0.659 µM, the GI50 (DU-145 prostate) was 0.0648 µM and the TGI (DU-145 prostate) was 0.468 µM. It also gave a GI50 (EKVX NSCLC) of 0.243 µM, a TGI (EKVX NSCLC) greater than 100 µM and a GI50 (HCC-2998 colon) of 0.0696 µM. It also gave a TGI (HCC-2998 colon) of 0.486 µM, a GI50 (HCT-116 colon) of 0.055 µM and a TGI (HCT-116 colon) of 28.1 µM. For the same molecule, the GI50 (HCT-15 colon) was 0.149 µM, the TGI (HCT-15 colon) was greater than 100 µM and the GI50 (HL-60(TB) leukemia) was 0.11 µM. The GI50 (HOP-62 NSCLC) was 0.119 µM, the TGI (HOP-62 NSCLC) was greater than 100 µM and the GI50 (HOP-92 NSCLC) was 1.47 µM. It also gave a TGI (HOP-92 NSCLC) of 29.2 µM, a GI50 (HS 578T breast) of 0.0387 µM and a TGI (HS 578T breast) of 0.387 µM. For the same molecule, the GI50 (HT29 colon) was 0.041 µM, the TGI (HT29 colon) was 10.3 µM and the GI50 (IGROV1 ovarian) was 0.0965 µM. It also gave a TGI (IGROV1 ovarian) greater than 100 µM, a GI50 (K-562 leukemia) of 0.0782 µM and a TGI (K-562 leukemia) greater than 100 µM. It also gave a GI50 (KM12 colon) of 0.0412 µM, a TGI (KM12 colon) of 5.19 µM and a GI50 (LOX IMVI melanoma) of 0.086 µM. It also gave a TGI (LOX IMVI melanoma) greater than 52 µM, a GI50 (M14 melanoma) of 0.0582 µM and a TGI (M14 melanoma) of 0.805 µM. For the same molecule, the GI50 (MALME-3M melanoma) was 0.0484 µM, the TGI (MALME-3M melanoma) was greater than 100 µM and the GI50 (MCF7 breast) was 0.0386 µM. For the same molecule, the TGI (MCF7 breast) was greater than 100 µM, the GI50 (MDA-MB-231 breast) was 0.301 µM and the TGI (MDA-MB-231 breast) was greater than 25.2 µM. For the same molecule, the GI50 (MOLT-4 leukemia) was 0.863 µM, the TGI (MOLT-4 leukemia) was greater than 100 µM and the GI50 (NCI-H226 lung) was 12.7 µM. The TGI (NCI-H226 lung) was greater than 100 µM, the GI50 (NCI-H23 lung) was 0.225 µM and the TGI (NCI-H23 lung) was greater than 100 µM. The GI50 (NCI-H460 lung) was 0.0481 µM, the TGI (NCI-H460 lung) was 4.1 µM and the GI50 (NCI-H522 lung) was 0.0324 µM. For the same molecule, the TGI (NCI-H522 lung) was 0.475 µM, the GI50 (NCI/ADR-RES ovarian) was 0.0361 µM and the TGI (NCI/ADR-RES ovarian) was 0.176 µM. For the same molecule, the GI50 (OVCAR-3 ovarian) was 0.0241 µM, the TGI (OVCAR-3 ovarian) was 0.0687 µM and the GI50 (OVCAR-4 ovarian) was 4.27 µM. The TGI (OVCAR-4 ovarian) was greater than 100 µM, the GI50 (OVCAR-5 ovarian) was 0.586 µM and the TGI (OVCAR-5 ovarian) was greater than 100 µM. It also gave a GI50 (OVCAR-8 ovarian) of 0.248 µM, a TGI (OVCAR-8 ovarian) greater than 23.8 µM and a GI50 (PC-3 prostate) of 0.0846 µM. It also gave a TGI (PC-3 prostate) greater than 100 µM, a GI50 (RPMI-8226 leukemia) of 0.247 µM and a TGI (RPMI-8226 leukemia) greater than 100 µM. It also gave a GI50 (RXF 393 renal) of 0.0927 µM, a TGI (RXF 393 renal) greater than 100 µM and a GI50 (SF-268 CNS) of 0.2 µM. It also gave a TGI (SF-268 CNS) greater than 100 µM, a GI50 (SF-295 CNS) of 0.0276 µM and a TGI (SF-295 CNS) of 0.115 µM. The GI50 (SF-539 CNS) was 0.0973 µM, the GI50 (SK-MEL-2 melanoma) was 0.432 µM and the TGI (SK-MEL-2 melanoma) was greater than 100 µM. It also gave a GI50 (SK-MEL-28 melanoma) greater than 100 µM, a TGI (SK-MEL-28 melanoma) greater than 100 µM and a GI50 (SK-MEL-5 melanoma) of 0.0541 µM. For the same molecule, the TGI (SK-MEL-5 melanoma) was 9.42 µM, the GI50 (SK-OV-3 ovarian) was 0.0993 µM and the TGI (SK-OV-3 ovarian) was greater than 100 µM. It also gave a GI50 (SN12C renal) of 0.485 µM, a TGI (SN12C renal) greater than 100 µM and a GI50 (SNB-19 CNS) of 0.929 µM. For the same molecule, the TGI (SNB-19 CNS) was greater than 100 µM, the GI50 (SNB-75 CNS) was 0.0402 µM and the GI50 (SR leukemia) was 0.0537 µM. The TGI (SR leukemia) was greater than 100 µM, the GI50 (SW-620 colon) was 0.0526 µM and the TGI (SW-620 colon) was greater than 100 µM. The GI50 (T-47D breast) was 0.053 µM, the TGI (T-47D breast) was greater than 100 µM and the GI50 (TK-10 renal) was 0.287 µM. For the same molecule, the TGI (TK-10 renal) was greater than 100 µM, the GI50 (U251 CNS) was 0.0955 µM and the TGI (U251 CNS) was greater than 100 µM. It also gave a GI50 (UACC-257 melanoma) of 0.108 µM, a TGI (UACC-257 melanoma) greater than 100 µM and a GI50 (UACC-62 melanoma) of 0.0482 µM. It also gave a TGI (UACC-62 melanoma) greater than 100 µM, a GI50 (UO-31 renal) of 0.0875 µM and a TGI (UO-31 renal) greater than 83.7 µM.
For `CC(C)(C)[Si](C)(C)OCC1OC(n2cc(I)c(=O)[nH]c2=O)C(O[Si](C)(C)C(C)(C)C)C1O[Si](C)(C)C(C)(C)C` (stereo not given), the TGI (A549 NSCLC) was 26.1 µM, the TGI (ACHN renal) was 28.5 µM and the TGI (BT-549 breast) was 50.7 µM. For the same molecule, the TGI (COLO 205 colon) was 53.7 µM, the TGI (EKVX NSCLC) was 45.6 µM and the TGI (HCT-15 colon) was greater than 100 µM. The TGI (HOP-62 NSCLC) was 39.8 µM, the TGI (HOP-92 NSCLC) was 56.2 µM and the TGI (HS 578T breast) was 57.2 µM. It also gave a TGI (HT29 colon) of 37 µM, a TGI (IGROV1 ovarian) of 38.1 µM and a TGI (LOX IMVI melanoma) of 35.2 µM. For the same molecule, the TGI (M14 melanoma) was 45.4 µM, the TGI (MALME-3M melanoma) was greater than 100 µM and the TGI (MCF7 breast) was 29.4 µM. It also gave a TGI (MDA-MB-231 breast) of 37.4 µM, a TGI (MOLT-4 leukemia) greater than 100 µM and a TGI (NCI-H226 lung) of 48 µM. For the same molecule, the TGI (NCI-H460 lung) was 36.8 µM, the TGI (NCI-H522 lung) was 25.2 µM and the TGI (NCI/ADR-RES ovarian) was greater than 100 µM. For the same molecule, the TGI (OVCAR-3 ovarian) was 28 µM, the TGI (OVCAR-4 ovarian) was greater than 100 µM and the TGI (OVCAR-5 ovarian) was 45.7 µM. It also gave a TGI (OVCAR-8 ovarian) of 29.1 µM, a TGI (PC-3 prostate) of 43.1 µM and a TGI (SF-268 CNS) of 43 µM. For the same molecule, the TGI (SF-295 CNS) was 36.8 µM, the TGI (SK-MEL-5 melanoma) was 31.4 µM and the TGI (SK-OV-3 ovarian) was 75.4 µM. The TGI (SN12C renal) was greater than 100 µM, the TGI (SNB-19 CNS) was 43.2 µM and the TGI (SNB-75 CNS) was 33 µM. The TGI (SR leukemia) was greater than 100 µM, the TGI (SW-620 colon) was 41.4 µM and the TGI (T-47D breast) was 47.6 µM. The TGI (UACC-257 melanoma) was 67.6 µM, the TGI (UACC-62 melanoma) was 35.4 µM and the TGI (UO-31 renal) was 50.2 µM.
